According to ChEMBL document CHEMBL2169758, “Evaluation of new scaffolds of myeloperoxidase inhibitors by rational design combined with high-throughput virtual screening” (J Med Chem, 2012):
Calls of active or inactive are those of the source. The rule behind the calls is not given here.

Tests used:
[1] = target: T1, Myeloperoxidase (Homo sapiens) (UniProt P05164); assay: Inhibition of human recombinant myeloperoxidase-mediated Apo B-100 oxidation on LDL at 50 uM after 5 min by ELISA
T1 sequence (whole entry): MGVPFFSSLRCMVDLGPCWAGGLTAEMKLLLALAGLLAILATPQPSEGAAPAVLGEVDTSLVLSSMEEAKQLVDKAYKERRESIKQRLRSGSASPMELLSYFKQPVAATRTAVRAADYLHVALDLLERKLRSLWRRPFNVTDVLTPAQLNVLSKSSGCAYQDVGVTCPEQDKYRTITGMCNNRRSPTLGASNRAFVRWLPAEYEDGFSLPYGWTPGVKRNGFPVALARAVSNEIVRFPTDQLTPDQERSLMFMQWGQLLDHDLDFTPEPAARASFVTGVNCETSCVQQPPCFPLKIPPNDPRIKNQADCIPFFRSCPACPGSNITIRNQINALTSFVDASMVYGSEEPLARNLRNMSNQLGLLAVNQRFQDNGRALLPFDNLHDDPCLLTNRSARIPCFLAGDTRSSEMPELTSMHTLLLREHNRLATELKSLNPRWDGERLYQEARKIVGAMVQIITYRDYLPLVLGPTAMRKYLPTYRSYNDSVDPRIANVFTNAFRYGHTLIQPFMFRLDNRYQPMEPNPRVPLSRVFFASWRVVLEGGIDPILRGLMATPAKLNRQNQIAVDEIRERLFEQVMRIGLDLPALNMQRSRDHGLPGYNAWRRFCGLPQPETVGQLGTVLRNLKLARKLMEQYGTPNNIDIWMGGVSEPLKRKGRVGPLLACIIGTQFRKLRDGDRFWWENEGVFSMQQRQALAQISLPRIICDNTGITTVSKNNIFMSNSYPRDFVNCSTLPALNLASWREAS

[2] = target: T1, Myeloperoxidase (Homo sapiens); assay: Inhibition of human recombinant myeloperoxidase-mediated Apo B-100 oxidation on LDL at 5 uM after 5 min by ELISA
[3] = target: T1, Myeloperoxidase (Homo sapiens); assay: Ratio of apparent rate constant of compound 1 formation to apparent rate constant of compound 2 formation for human recombinant myeloperoxidase
[4] = target: T1, Myeloperoxidase (Homo sapiens); assay: Inhibition of human recombinant myeloperoxidase assessed as compound 2 formation by spectrophotometry in presence of H2O2
[5] = target: T1, Myeloperoxidase (Homo sapiens); assay: Inhibition of human recombinant myeloperoxidase assessed as compound 1 formation by spectrophotometry in presence of H2O2
[6] = target: T2, Myeloperoxidase (Homo sapiens, UniProt P05164); assay: Inhibition of recombinant human myeloperoxidase assessed as taurine chloramine production after 5 mins by spectrophotometry in presence of H2O2; format: single protein
T2 sequence (P05164 whole entry): T1 sequence (whole entry)

[7] = target: T1, Myeloperoxidase (Homo sapiens); assay: Inhibition of human recombinant myeloperoxidase-mediated Apo B-100 oxidation on LDL at 1.25 uM after 5 min by ELISA
[8] = target: T2, Myeloperoxidase; assay: Inhibition of myeloperoxidase
[9] = target: T2, Myeloperoxidase; assay: Binding affinity to recombinant human myeloperoxidase
[10] = target: T2, Myeloperoxidase; assay: Inhibition of recombinant human myeloperoxidase

Cn1c(=O)[nH]c(=O)c2c1nc(NCCN)n2CCCOc1ccccc1
inhibition [1]: 6% | inhibition [2]: 2.6% | Ratio [3]: 24300 | Activity [4]: 210 M⁻¹ s⁻¹ | Rate constant for compound I formation [5]: 5.1 ×10⁶ /M/s | IC50 [6]: 460 nM | inhibition [7]: 11%

COc1ccccc1N1CCN(C(=O)CSc2ncccc2-c2nc3ccccc3[nH]2)CC1
inhibition [1]: inactive | inhibition [2]: inactive | IC50 [6]: 6200 nM | inhibition [7]: inactive

COc1cc(OC)c(C2N=C(N)Nc3nc4ccccc4n32)cc1OC (stereo not given)
inhibition [1]: inactive | inhibition [2]: inactive | Ratio [3]: 1.27e+06 | Activity [4]: 1.1 M⁻¹ s⁻¹ | Rate constant for compound I formation [5]: 1.4 ×10⁶ /M/s | IC50 [6]: 3500 nM | inhibition [7]: inactive

CCC1=CCCc2cc(OC)ccc21
IC50 [8]: 3000 nM

CC(C)CN1C(=O)C2=NC=NC2=NC1=S
IC50 [8]: 870 nM

C(=N\Nc1nc2ccccc2[nH]1)/c1c[nH]c2ccccc12
inhibition [1]: inactive | inhibition [2]: inactive | Rate constant for compound I formation [5]: 4.1 ×10⁷ /M/s | IC50 [6]: 12000 nM | inhibition [7]: inactive

O=C(NO)c1ccccc1O [SALICYLHYDROXAMIC ACID]
Kd [9]: 2000 nM | IC50 [10]: 3000 nM

COc1ccc2cc(CN(Cc3ccc(F)cc3)C(=S)NCCCN(C)C)c(=O)[nH]c2c1
IC50 [6]: 3800 nM

CS(=O)(=O)Nc1ccc([N+](=O)[O-])cc1Oc1ccccc1 [NIMESULIDE]
IC50 [10]: 2100 nM

COc1ccc2cc(CN(Cc3ccc(F)cc3)C(=S)NCCCN(C)C)c(O)nc2c1
inhibition [1]: inactive | inhibition [2]: inactive | Rate constant for compound I formation [5]: 9.36 ×10⁵ /M/s | inhibition [7]: inactive

Oc1ccccc1CN1CCCN(Cc2ccccc2O)C1
inhibition [1]: 11% | inhibition [2]: 4.5% | Rate constant for compound I formation [5]: 5.1 ×10⁶ /M/s | IC50 [6]: 500 nM | inhibition [7]: 62%

COc1cc(-c2nc(-c3ccccc3)c(-c3ccccc3)[nH]2)ccc1OCC(=O)O
inhibition [1]: inactive | inhibition [2]: inactive | Rate constant for compound I formation [5]: 1.9 ×10⁶ /M/s | IC50 [6]: 970 nM | inhibition [7]: inactive

O=c1c(O)c(-c2ccc(O)c(O)c2)oc2cc(O)cc(O)c12 [QUERCETIN]
IC50 [8]: 1270 nM

NC1=Nc2nc3ccccc3n2C(c2ccc(OCC(=O)O)cc2)N1 (stereo not given)
inhibition [1]: inactive | inhibition [2]: inactive | Rate constant for compound I formation [5]: 6.8 ×10⁵ /M/s | IC50 [6]: 3700 nM | inhibition [7]: inactive

NCCc1c[nH]c2ccc(F)cc12
IC50 [10]: 790 nM
